# Source: patent US7964647B2 (Mutual Pharmaceutical Company, Inc., priority 2007, dated 2011)
# How the values were obtained:
# clinical = conditions: human, in vivo, 0.6 mg; for AUC: AUC0-τ, 0.6 mg b.i.d. x 10 days, after last dose (Day 25), healthy adults, N = 13
# Protocol: Subjects received a light breakfast served 60 minutes following dose administration in the morning and the evening dose was administered 90 minutes after an evening meal on Days 15 through 24 only. […] Study periods were separated by a 14-day washout. Following the single dose and the last dose of the multiple dose regimen (beginning on the mornings of Day 1 and Day 25, respectively), blood samples were collected (6 mL each) from each subject within 1 hour prior to dosing and after dose administration at study hours 0.5, 1, 1.5, 2, 3, 4, 6, 8, 10, 12, and 24 (while confined) and 36, 48, 72, and 96 (on an outpatient basis).
# [1] = tested on: patients with acute gout flare (acute gouty arthritic attack); test: Multicenter, randomized, double-blind, placebo-controlled dose comparison study in acute gout flare: efficacy (target joint pain); type: in vivo, human; conditions: for Difference between treatment groups in mean change from baseline in target joint pain, High vs. Low / Difference between treatment groups in mean change from baseline in target joint pain, High vs. Placebo / Difference between treatment groups in mean change from baseline in target joint pain, Low vs. Placebo / Change from baseline in target joint pain, Mean / Change from baseline in target joint pain, Median: LOCF, ITT
# From the text: A sufficient number of patients are screened to enroll and randomize 300 patients (100 patients per treatment group) who meet the criteria of the American College of Rheumatology (ACR) for acute arthritis of gout.
# Efficacy assessment will be made based on patient and Investigator inputs. Patients will record pain severity and sleep interference on a study diary. The severity of pain for each joint affected by the acute gouty arthritic attack will be rated on an 11-point pain intensity numerical rating scale (PI-NRS) that ranges from 0 (“no pain”) to 10 (“worst possible pain”). […] Investigators will provide clinical assessments in the clinic at all Post-Flare Phase study visits, and at medically necessary intervening visits. For these assessments, each of the patient's joints affected by the acute gouty arthritic attack will be examined and signs and symptoms of inflammation will be rated (erythema [absent, present, or not assessable], swelling [0, “none” to 3, “severe”], and tenderness to touch [0, “none” to 3, “severe”]).
# The target joint is identified during data analysis as that joint affected by the acute gout flare with the highest baseline pain score on the patient diary. Ties among maximum joint scores for an individual are resolved by random selection.
# The secondary efficacy variables are assessments of magnitude of pain reduction, time to response, time to complete pain relief, and interference with sleep as recorded on patient diaries by the patient. Signs and symptoms of inflammation per Investigator's clinical assessments of the target joint are evaluated. Time to drop out (use of rescue medications) is also evaluated. Investigator global assessment of response to treatment is assessed.
# Analyses will also be made on an Evaluable patient population with an Evaluable patient defined as one who, in addition to being included in the PP population, completed the randomized treatment course. The ITT population will be used for the evaluation of safety.
# Statistical tests for efficacy analysis are two-tailed with an alpha significance level of 0.05.
# The sensitivity to alternate definitions of response (based both on magnitude of reduction from baseline as well as time point) will be evaluated as secondary endpoints. As additional sensitivity analyses, these tests will also be repeated for the PP and Evaluable populations if the sample sizes differ from the overall ITT population by more than 10%.
# Change in pain intensity, interference with sleep, time to 50% reduction in pain, and time to complete pain relief will be analyzed as continuous variables using analysis of covariance with study site, treatment group, and site by treatment interaction as independent variables for change in pain intensity and interference with sleep, with baseline score as a covariate. For the Investigator's clinical assessment of inflammation (erythema, swelling, and tenderness to touch) and Investigator's global assessment of response to treatment, the treatment groups will be compared using the Mantel-Haenszel chi-square test stratified on study site.
# [2] = low-dose regimen 1.8 mg (2 x 0.6 mg, then 0.6 mg 1 hour later), fasting healthy adults, N = 13
# [3] = low-dose regimen 1.8 mg, healthy adults, N = 13
# [4] = low-dose regimen 1.8 mg, time after the initial dose, healthy adults, N = 13
# [5] = 24 hours post first dose, High dose 4.8 mg, N = 52
# [6] = 24 hours post first dose, Low dose 1.8 mg, N = 74
# [7] = 32 hours post first dose, High dose 4.8 mg, N = 52
# [8] = 32 hours post first dose, Low dose 1.8 mg, N = 74
structure (smiles),measurement,setting,value
"COc1cc2c(c(OC)c1OC)-c1ccc(OC)c(=O)cc1[C@@H](NC(C)=O)CC2 [Colchicine, (−)-N-[(7S,12aS)-1,2,3,10-tetramethoxy-9-oxo-5,6,7,9-tetrahydrobenzo[a]heptalen-7-yl]-acetamide]",Tmax,clinical,1 h
same,AUC,clinical; MEAN,29.1 ng·h/mL
same,AUC,clinical; MEDIAN,28.5 ng·h/mL
same,Cmax,clinical; po,2.71 ng/mL
same,half-life,clinical; po,~5 h
same,"Cmax, MAX",[2],11.37 ng/mL
same,"Cmax, MIN",[2],3.16 ng/mL
same,Maximum colchicine concentration,"low-dose regimen 1.8 mg, healthy adults",6.2 ng/mL
same,"CL/F, MAX",[3],52676.24 mL/h
same,"CL/F, MEAN",[3],36950.93 mL/h
same,"CL/F, MEDIAN",[3],35444.40 mL/h
same,"CL/F, MIN",[3],24295.73 mL/h
same,"Kel, MAX",[3],0.0502 h⁻¹
same,"Kel, MEAN",[3],0.0326 h⁻¹
same,"Kel, MEDIAN",[3],0.0322 h⁻¹
same,"Kel, MIN",[3],0.0141 h⁻¹
same,"Total AUC0-t, MAX",[3],58.93199 ng·h/mL
same,"Total AUC0-t, MEAN",[3],43.78755 ng·h/mL
same,"Total AUC0-t, MEDIAN",[3],43.94215 ng·h/mL
same,"Total AUC0-t, MIN",[3],28.82145 ng·h/mL
same,"Total AUC∞, MAX",[3],74.08708 ng·h/mL
same,"Total AUC∞, MEAN",[3],52.07006 ng·h/mL
same,"Total AUC∞, MEDIAN",[3],50.78377 ng·h/mL
same,"Total AUC∞, MIN",[3],34.171 ng·h/mL
same,"Varea/F, MAX",[3],1724.36 L
same,"Varea/F, MEAN",[3],1188.72 L
same,"Varea/F, MEDIAN",[3],1149.35 L
same,"Varea/F, MIN",[3],774.19 L
same,"t1/2, MAX",[3],49.20 h
same,"t1/2, MEAN",[3],23.63 h
same,"t1/2, MIN",[3],13.80 h
same,"Tmax, MAX",[4],2.50 h
same,"Tmax, MIN",[4],1.00 h
same,Subjects with a secondary peak within 6 hours after the first dose,"low-dose regimen 1.8 mg, 10 of 13 subjects",77%
same,"Difference between treatment groups in mean change from baseline in target joint pain, High vs. Low",[1]; 24 hours post first dose,0.2
same,"Difference between treatment groups in mean change from baseline in target joint pain, High vs. Placebo",[1]; 24 hours post first dose,−1.3
same,"Difference between treatment groups in mean change from baseline in target joint pain, Low vs. Placebo",[1]; 24 hours post first dose,−1.5
same,"Change from baseline in target joint pain, Mean",[1]; [5],−2.0
same,"Change from baseline in target joint pain, Median",[1]; [5],−2.0
same,"Change from baseline in target joint pain, Mean",[1]; [6],−2.2
same,"Change from baseline in target joint pain, Median",[1]; [6],−2.0
same,"Number (%) of responders, at least a 2-unit reduction in target joint pain score",[1]; [5],18 (34.6) Number (%)
same,"Number (%) of responders, at least a 2-unit reduction in target joint pain score",[1]; [6],32 (43.2) Number (%)
same,"Difference between treatment groups in mean change from baseline in target joint pain, High vs. Low",[1]; 32 hours post first dose,0.1
same,"Difference between treatment groups in mean change from baseline in target joint pain, High vs. Placebo",[1]; 32 hours post first dose,−1.6
same,"Difference between treatment groups in mean change from baseline in target joint pain, Low vs. Placebo",[1]; 32 hours post first dose,−1.6
same,"Change from baseline in target joint pain, Mean",[1]; [7],−2.3
same,"Change from baseline in target joint pain, Median",[1]; [7],−2.0
same,"Change from baseline in target joint pain, Mean",[1]; [8],−2.4
same,"Change from baseline in target joint pain, Median",[1]; [8],−2.5
same,"Number (%) of responders, at least a 2-unit reduction in target joint pain score",[1]; [7],20 (38.5) Number (%)
same,"Number (%) of responders, at least a 2-unit reduction in target joint pain score",[1]; [8],34 (45.9) Number (%)
